Experimental data reported in patent US11415579B2, “Assay for measuring a rate of reaction between a target and a ligand candidate” (Imperial College Innovations Ltd., priority 2016, dated 2022).

Key:
[1] = molecular target: T1, human cyclin-dependent kinase 2 (Cdk2) (Homo sapiens, UniProt P24941); experiment: Kinetic thiol consumption assay with wild type Cdk2 (C177); format: binding; parameters: key to Rate enhancement, Cdk2 WT: k(Cdk2) divided by k(model thiol); Rate constant with Cdk2 (k(Cdk2)): unit not given here; conditions: for Rate constant with Cdk2 (k(Cdk2)): 500 μM ligand, 5 μM thiol, phosphate buffer pH 8; for Rate enhancement, Cdk2 WT: no additional mutations; for Rate constant with Cdk2 WT: Protein: Cdk2, cysteine position WT, in h^-1; for k(Cdk2)/k(Cdk2_mut) rate enhancement: model thiol Cdk2[C177A, F80C, K278C]; for k(Cdk2)/k(GSH) rate enhancement: model thiol glutathione
T1 construct: poly-histidine; made in house; host or cells: E. coli
Outline: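 His-tagged human Cdk2 (single surface cysteine C177), expressed in E. coli, or a model thiol at 5 μM in degassed phosphate buffer pH 8 was pre-treated with immobilized TCEP beads (2% v/v) before acrylamide addition. Fluorescence (ex/em 380/470 nm) was read after 1 h at room temperature, normalized to DMSO/thiol-only control and plotted versus time.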

[2] = molecular target: T2, Cdk2(S181C) (C177A) (Homo sapiens, UniProt P24941, C177A/S181C); experiment: Kinetic thiol consumption assay with Cdk2 mutant S181C; format: binding; parameters: key to Rate enhancement, Cdk2 S181C: rate constant with Cdk2 ÷ rate constant with model thiol (fold); conditions: additional mutation C177A; for Rate constant with Cdk2 S181C: Protein: Cdk2, cysteine position S181C, in h^-1
T2 construct: poly-histidine; made in house; host or cells: E. coli
Outline: (§1)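 Read-out is fluorescence at 380/470 nm, taken after 1 h at room temperature and normalized to a DMSO/thiol-only control over time. Thiol (5 μM Cdk2 mutant or model thiol) was in degassed pH 8 phosphate buffer with 2% v/v TCEP beads. Acrylamide rate constants for Cdk2 were divided by those with model thiol.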

[3] = molecular target: T3, Cdk2(S276C) (C177A) (Homo sapiens, UniProt P24941, C177A/S276C); experiment: Kinetic thiol consumption assay with Cdk2 mutant S276C; format: binding; parameters: key to Rate enhancement, Cdk2 S276C: rate constant with Cdk2 ÷ rate constant with model thiol (fold); conditions: additional mutation C177A; for Rate constant with Cdk2 S276C: Protein: Cdk2, cysteine position S276C, in h^-1
T3 construct: poly-histidine; made in house; host or cells: E. coli
Outline: as §1

[4] = molecular target: T4, Cdk2(C177A, F80C) (Homo sapiens, UniProt P24941, C177A/F80C); experiment: Kinetic thiol consumption assay with Cdk2 mutant F80C, incl. kobs versus concentration (Kd, k2); format: binding; parameters: key to Rate enhancement, Cdk2 F80C: Cdk2 rate constant divided by model-thiol rate constant; conditions: additional mutation C177A; for Rate constant with Cdk2 F80C: Protein: Cdk2, cysteine position F80C, in h^-1
T4 construct: poly-histidine; made in house; host or cells: E. coli
Outline: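 His-tagged Cdk2(C177A/F80C) from E. coli or model thiol, 5 μM in degassed phosphate buffer pH 8 with TCEP beads, reacted with acrylamide ligands; fluorescence (ex/em 380/470 nm) normalized to DMSO control and fitted to first-order decay for kobs. Kd and k2 obtained from hyperbolic fit of kobs versus ligand concentration.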

[5] = Kinetic thiol consumption assay with model thiol glutathione; format: physicochemical; parameters: Rate constant with glutathione (k(GSH)): unit not given here; conditions: for Rate constant with glutathione (k(GSH)): 500 μM ligand, 5 μM thiol, phosphate buffer pH 8; for Rate constant with Glutathione: Protein: Glutathione, cysteine position NA, in h-1
Outline: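 GSH 5 μM, degassed phosphate buffer pH 8, TCEP beads 2% v/v; acrylamide added; RT, 1 h; fluorescence ex/em 380/470 nm; normalized to DMSO/thiol control; k from first-order exponential decay fit.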

[6] = molecular target: T5, Cdk2(H71C) (C177A) (Homo sapiens, UniProt P24941, C177A/H71C); experiment: Kinetic thiol consumption assay with Cdk2 mutant H71C; format: binding; parameters: key to Rate enhancement, Cdk2 H71C: rate constant with Cdk2 ÷ rate constant with model thiol (fold); conditions: additional mutation C177A; for Rate constant with Cdk2 H71C: Protein: Cdk2, cysteine position H71C, in h^-1
T5 construct: poly-histidine; made in house; host or cells: E. coli
Outline: as §1

[7] = molecular target: T6, Cdk2(N272C) (C177A) (Homo sapiens, UniProt P24941, C177A/N272C); experiment: Kinetic thiol consumption assay with Cdk2 mutant N272C; format: binding; parameters: key to Rate enhancement, Cdk2 N272: rate constant with Cdk2 ÷ rate constant with model thiol (fold); conditions: for Rate enhancement, Cdk2 N272: Cdk2 N272, additional mutation C177A; for Rate constant with Cdk2 N272C: Protein: Cdk2, cysteine position N272C, additional mutation C177A, in h^-1
T6 construct: poly-histidine; made in house; host or cells: E. coli
Outline: as §1

[8] = molecular target: T7, Cdk2(T182C) (C177A) (Homo sapiens, UniProt P24941, C177A/T182C); experiment: Kinetic thiol consumption assay with Cdk2 mutant T182C; format: binding; parameters: key to Rate enhancement, Cdk2 T182C: rate constant with Cdk2 ÷ rate constant with model thiol (fold); conditions: additional mutation C177A; for Rate constant with Cdk2 T182C: Protein: Cdk2, cysteine position T182C, in h^-1
T7 construct: poly-histidine; made in house; host or cells: E. coli
Outline: as §1

[9] = molecular target: T8, Cdk2[C177A, F80C, K278C] (Homo sapiens, UniProt P24941, C177A/F80C/K278C); experiment: Kinetic thiol consumption assay with mutant Cdk2 as model thiol; format: binding; parameters: unit not given here; conditions: 500 μM ligand, 5 μM thiol, phosphate buffer pH 8
T8 construct: poly-histidine; made in house; host or cells: E. coli
Outline: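 First-order rate constants were derived by exponential-decay fitting of DMSO/thiol-normalized fluorescence (380/470 nm) over time at room temperature. Thiol was 5 μM E. coli-expressed His-tagged Cdk2 mutant C177A/F80C/K278C in degassed pH 8 phosphate buffer containing 2% v/v TCEP beads.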

[10] = molecular target: T9, Cdk2(R122C) (C177A) (Homo sapiens, UniProt P24941, C177A/R122C); experiment: Kinetic thiol consumption assay with Cdk2 mutant R122C; format: binding; parameters: key to Rate enhancement, Cdk2 R122C: rate constant with Cdk2 ÷ rate constant with model thiol (fold); conditions: additional mutation C177A; for Rate constant with Cdk2 R122C: Protein: Cdk2, cysteine position R122C, in h-1
T9 construct: poly-histidine; made in house; host or cells: E. coli
Outline: as §1

| SMILES | Rate constant with Cdk2 (k(Cdk2)) [1] | Rate enhancement, Cdk2 WT [1] | Rate constant with Cdk2 WT [1] | k(Cdk2)/k(Cdk2_mut) rate enhancement [1] | k(Cdk2)/k(GSH) rate enhancement [1] | Rate enhancement, Cdk2 S181C [2] | Rate constant with Cdk2 S181C [2] | Rate enhancement, Cdk2 S276C [3] | Rate constant with Cdk2 S276C [3] | Rate enhancement, Cdk2 F80C [4] | Rate constant with Cdk2 F80C [4] | Rate enhancement, Cdk2 H71C [6] | Rate enhancement, Cdk2 N272 [7] | Rate enhancement, Cdk2 T182C [8] | Rate constant with Cdk2 T182C [8] | Rate constant with Cdk2[C177A, F80C, K278C] (k(Cdk2_mut)) [9] | Rate enhancement, Cdk2 R122C [10] | Rate constant with Cdk2 R122C [10] | Rate constant with glutathione (k(GSH)) [5] | Rate constant with Glutathione [5] | also measured |
| --- | --- | --- | --- | --- | --- | --- | --- | --- | --- | --- | --- | --- | --- | --- | --- | --- | --- | --- | --- | --- | --- |
| C=CC(=O)Nc1ccc(C23CC4CC(CC(O)(C4)C2)C3)cc1 [CA-194] | 0.00505 | 1.123 | 0.005049 | 0.3625 | 1.651 | 0.6985 | 0.003139 | 0.7641 | 0.003434 | 0.9911 | 0.004454 | 0 | 0.2125 | 10.72 | 0.04819 | 0.01393 | 0.7287 | 0.003275 | 0.00306 | 0.004494 | Rate constant with Cdk2 N272C [7]: 0.0009551 |
| C=CC(=O)NC1(c2noc(C)n2)CCCCCC1 [CA-162] | 0.02529 | 0.5566 | 0.03304 | 14.75 | 0.9863 | 0.1273 | 0.007555 | 1.07 | 0.06352 | 0.05133 | 0.003047 | 0.4092 | 0.3725 | 6.607 | 0.3922 | 0.00171 | 0.1023 | 0.006071 | 0.02564 | 0.05936 | Rate constant with Cdk2 H71C [6]: 0.02429; Rate constant with Cdk2 N272C [7]: 0.02211 |
| C=CC(=O)N1CCC2(CCCN(Cc3ccccc3)C2)C1 (stereo not drawn) [CA-141] | 0.00693 | 0.3847 | 0.006933 | 2.693 | 0.5009 | 0.1935 | 0.003487 | 0 |  | 0.09517 | 0.001715 | 0 | 0.2507 | 0.5125 | 0.009235 | 0.00257 | 0.2386 | 0.0043 | 0.01384 | 0.01802 | Rate constant with Cdk2 N272C [7]: 0.004517 |

The next lines start with results.

| Rate constant with Cdk2 (k(Cdk2)) [1] | Rate enhancement, Cdk2 WT [1] | Rate constant with Cdk2 WT [1] | k(Cdk2)/k(Cdk2_mut) rate enhancement [1] | k(Cdk2)/k(GSH) rate enhancement [1] | Rate enhancement, Cdk2 S181C [2] | Rate constant with Cdk2 S181C [2] | Rate enhancement, Cdk2 S276C [3] | Rate constant with Cdk2 S276C [3] | Rate enhancement, Cdk2 F80C [4] | Rate constant with Cdk2 F80C [4] | Rate enhancement, Cdk2 H71C [6] | Rate enhancement, Cdk2 N272 [7] | Rate enhancement, Cdk2 T182C [8] | Rate constant with Cdk2 T182C [8] | Rate constant with Cdk2[C177A, F80C, K278C] (k(Cdk2_mut)) [9] | Rate enhancement, Cdk2 R122C [10] | Rate constant with Cdk2 R122C [10] | SMILES | Rate constant with glutathione (k(GSH)) [5] | Rate constant with Glutathione [5] | also measured |
| --- | --- | --- | --- | --- | --- | --- | --- | --- | --- | --- | --- | --- | --- | --- | --- | --- | --- | --- | --- | --- | --- |
| 0.00519 | 0.6362 | 0.005124 | 0.1479 | 0.6204 | 0.7584 | 0.006108 | 0.2841 | 0.002288 | 1.711 | 0.01378 | 0.3662 | 0 | 2.136 | 0.0172 | 0.03512 | 0.6595 | 0.005312 | C=CC(=O)Nc1ccccc1-c1ccccc1 [EL-1012] | 0.00837 | 0.008054 | Rate constant with Cdk2 H71C [6]: 0.002949 |
| 0.07947 | 2.637 | 0.07947 | 0.3457 | 2.652 | 0.3942 | 0.01188 | 0.7973 | 0.02403 | 9.237 | 0.2784 | 3.388 | 0.04599 | 16.35 | 0.4929 | 0.2299 | 0.259 | 0.007805 | C=CC(=O)Nc1ccc(C(=O)NC2CCCC2)cc1 [EL-1114] | 0.02997 | 0.03014 | Rate constant with Cdk2 H71C [6]: 0.1021; Rate constant with Cdk2 N272C [7]: 0.001386 |
| 0.014 | 4.291 | 0.03792 | 1.746 | 2.839 | 2.376 | 0.021 | 3.446 | 0.03045 | 1.059 | 0.009355 | 0.2745 | 1.495 | 17.17 | 0.1517 | 0.00802 | 0.3144 | 0.002778 | C=CC(=O)NCC1(NC(=O)OC(C)(C)C)CCCCC1 [EL-1143] | 0.00493 | 0.008837 | Rate constant with Cdk2 H71C [6]: 0.002426; Rate constant with Cdk2 N272C [7]: 0.01321 |
| 0.01873 | 1.065 | 0.01873 | 0.8683 | 1.062 | 1 | 0.01759 | 1.35 | 0.02375 | 1.015 | 0.01786 | 0.3885 | 0.3397 | 4.097 | 0.07206 | 0.02157 | 0.6879 | 0.0121 | C=CC(=O)N1CCN(c2cccc3cccnc23)CC1 [EL-1156] | 0.01763 | 0.01759 | Rate constant with Cdk2 H71C [6]: 0.006834; Rate constant with Cdk2 N272C [7]: 0.005976 |
